The record followed here is patent publication US12398154B2, “Azaquinazoline pan-KRas inhibitors” (Mirati Therapeutics, Inc., priority 2020, dated 2025).

One assay has as its target KRas G12D (Homo sapiens, UniProt P01116, G12D). As to the kind of experiment: biochemical.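 Further: TR-FRET displacement binding assay on KRas, read after a one-hour incubation at room temperature, IC50 fitted from percent-of-control values.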
A further assay addresses KRas G12V (Homo sapiens, UniProt P01116, G12V). As to the kind of experiment: biochemical.
For another assay, the target named is KRas G12R (Homo sapiens, UniProt P01116, G12R). As to the kind of experiment: biochemical.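 Further: TR-FRET displacement assay of compound binding to KRas, read after one hour at room temperature, potency from a four-parameter fit of percent-of-control values.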
In another assay the test system is pERK in MKN1 cells. As to the kind of experiment: Inhibition of KRas phosphorylation of ERK (Cisbio HTRF pERK assay). The following applies: Homo sapiens, MKN-1, 3 h, read-out: Inhibition (HTRF IC50) of KRas-mediated Phosphorylation of ERK, MKN1. (In general: Time-resolved FRET reads energy transfer from a long-lived donor to a nearby acceptor.)
The subject of a further assay is pERK in PSN1 cells. The description is as above. The note with it: Homo sapiens, PSN1, 3 h, read-out: Inhibition (HTRF IC50) of KRas-mediated Phosphorylation of ERK, PSN1.
Another assay concerns pERK in ASPC1 cells. The assay is described as above. The following applies: Homo sapiens, ASPC1, read-out: Inhibition (HTRF IC50) of KRas-mediated Phosphorylation of ERK, AsPC-1.
The next assay has as its system pERK in HCT116 cells. The assay is described as above. The following applies: Homo sapiens, HCT-116, read-out: Inhibition (HTRF IC50) of KRas-mediated Phosphorylation of ERK, HCT116.
For a further assay, the target named is KRas G12C (Homo sapiens, UniProt P01116, G12C). Kind of assay: biochemical.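 Further: binding to KRas assessed by TR-FRET displacement after one hour incubation at room temperature, potency fitted from percent-of-control values.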
The target in the next assay is KRas WT (Homo sapiens, UniProt P01116). Kind of assay: biochemical.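 Further: binding to KRas read as TR-FRET displacement after a one-hour room-temperature incubation, IC50 derived from percent-of-control values.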
KRas WT, sequence (P01116 1-169 isoform P01116-2): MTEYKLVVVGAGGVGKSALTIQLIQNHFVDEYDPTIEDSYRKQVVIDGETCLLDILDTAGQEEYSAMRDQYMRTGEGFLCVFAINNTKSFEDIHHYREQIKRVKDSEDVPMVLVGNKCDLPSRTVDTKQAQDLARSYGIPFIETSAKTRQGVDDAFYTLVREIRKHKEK

KRas G12V, sequence (P01116 1-169 isoform P01116-2 G12V): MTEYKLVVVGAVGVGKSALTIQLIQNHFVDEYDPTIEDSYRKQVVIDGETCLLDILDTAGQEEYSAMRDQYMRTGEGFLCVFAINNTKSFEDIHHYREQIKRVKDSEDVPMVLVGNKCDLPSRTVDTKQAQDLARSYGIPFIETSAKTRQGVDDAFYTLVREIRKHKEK
KRas G12D, sequence (P01116 1-169 isoform P01116-2 G12D): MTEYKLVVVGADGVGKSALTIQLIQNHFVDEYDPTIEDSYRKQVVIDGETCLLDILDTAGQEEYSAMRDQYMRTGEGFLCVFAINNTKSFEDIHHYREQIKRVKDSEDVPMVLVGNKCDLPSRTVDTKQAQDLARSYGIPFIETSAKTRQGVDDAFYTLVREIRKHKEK
KRas G12R, sequence (P01116 1-169 isoform P01116-2 G12R): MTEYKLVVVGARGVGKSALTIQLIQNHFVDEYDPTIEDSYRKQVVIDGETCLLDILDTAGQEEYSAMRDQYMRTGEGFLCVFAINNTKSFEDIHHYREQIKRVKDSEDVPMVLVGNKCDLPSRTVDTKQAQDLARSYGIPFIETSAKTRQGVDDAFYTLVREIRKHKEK
KRas G12C, sequence (P01116 1-169 isoform P01116-2 G12C): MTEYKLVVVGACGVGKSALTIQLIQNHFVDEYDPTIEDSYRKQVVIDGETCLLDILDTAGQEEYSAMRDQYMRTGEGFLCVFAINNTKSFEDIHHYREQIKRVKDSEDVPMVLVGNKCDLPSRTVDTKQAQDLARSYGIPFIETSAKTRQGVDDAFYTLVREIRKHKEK

The IC50 is the concentration needed to halve the response being measured. As for `CCc1c(F)ccc2cc(O)cc(-c3ncc4c(NCC5CC(=O)N5)nc(OC[C@@]56CCCN5C[C@H](F)C6)nc4c3F)c12` (single isomer, unassigned) [Example 373], the IC50 against KRas G12D is 5 nM; against KRas G12V, at most 2 nM; on KRas G12R, at most 2 nM; with pERK in MKN1 cells, 103 nM; with pERK in PSN1 cells it was at least 10000 nM; in the assay on pERK in ASPC1 cells, 4070 nM. Also, the 50% inhibitory concentration (IC50) in the assay with pERK in HCT116 cells amounted to 3840 nM.
As to `CCc1c(F)ccc2cc(O)cc(-c3ncc4c(N5CCC[C@]6(C5)C[C@](C)(O)C6)nc(OCC56CCCN5CCC6)nc4c3F)c12` [Example 328, trans-6-(7-(8-ethyl-7-fluoro-3-hydroxynaphthalen-1-yl)-8-fluoro-2-((hexahydro-1H-pyrrolizin-7a-yl)methoxy)pyrido[4,3-d]pyrimidin-4-yl)-2-methyl-6-azaspiro[3.5]nonan-2-ol], the IC50 against KRas G12D worked out at 9 nM; against KRas G12V, 6 nM; against KRas G12R, 18 nM; against KRas G12C, 9 nM; on KRas WT, 9 nM; in the assay with pERK in MKN1 cells, 271 nM. Moreover, the IC50 with pERK in PSN1 cells is at least 10000 nM; with pERK in ASPC1 cells, 1720 nM; in the assay with pERK in HCT116 cells it was 1280 nM.
With `CCc1c(F)ccc2cc(O)cc(-c3ncc4c(N5CCC[C@]6(C5)C[C@@](C)(O)C6)nc(OCC56CCCN5CCC6)nc4c3F)c12` [Example 329, cis-6-(7-(8-ethyl-7-fluoro-3-hydroxynaphthalen-1-yl)-8-fluoro-2-((hexahydro-1H-pyrrolizin-7a-yl)methoxy)pyrido[4,3-d]pyrimidin-4-yl)-2-methyl-6-azaspiro[3.5]nonan-2-ol], the concentration for half-maximal inhibition (IC50) on KRas G12D was 6600 nM; against KRas G12V, 1780 nM; against KRas G12R, 3380 nM; against KRas G12C it was 2620 nM; against KRas WT, 1030 nM; in the assay on pERK in MKN1 cells, at least 10000 nM. Also, the results for the IC50 with pERK in PSN1 cells, in the assay with pERK in ASPC1 cells and in the assay on pERK in HCT116 cells were at least 10000 nM, at least 20000 nM and at least 20000 nM, respectively.
In the case of `CCc1c(F)ccc2cc(O)cc(-c3ncc4c(NCC5CCC(=O)N5)nc(OC[C@@]56CCCN5C[C@H](F)C6)nc4c3F)c12` (stereo partly drawn) [Example 371, 5-(((7-(8-ethyl-7-fluoro-3-hydroxynaphthalen-1-yl)-8-fluoro-2-(((2R,7aS)-2-fluorohexahydro-1H-pyrrolizin-7a-yl)methoxy)pyrido[4,3-d]pyrimidin-4-yl)amino)methyl)pyrrolidin-2-one], the IC50 against KRas G12D was 7 nM; against KRas G12V, at most 2 nM; on KRas G12R, 5 nM; with pERK in MKN1 cells, 387 nM; with pERK in PSN1 cells, at least 10000 nM; in the assay with pERK in ASPC1 cells it was at least 20000 nM. In addition, the IC50 with pERK in HCT116 cells was 9340 nM.
On to `CCc1c(F)ccc2cc(O)cc(-c3ncc4c(NCCN5CC(=O)NC5=O)nc(OC[C@@]56CCCN5C[C@H](F)C6)nc4c3F)c12` [Example 378, 1-(2-((7-(8-ethyl-7-fluoro-3-hydroxynaphthalen-1-yl)-8-fluoro-2-(((2R,7aS)-2-fluorohexahydro-1H-pyrrolizin-7a-yl)methoxy)pyrido[4,3-d]pyrimidin-4-yl)amino)ethyl)imidazolidine-2,4-dione], for which the IC50 at KRas G12D was 104 nM; against KRas G12V it was 14 nM; at KRas G12R, 25 nM; in the assay on pERK in ASPC1 cells, at least 10000 nM; in the assay with pERK in HCT116 cells, at least 10000 nM.
As for `CCc1c(F)ccc2cc(O)cc(-c3ncc4c(NCCC5NC(=O)NC5=O)nc(OC[C@@]56CCCN5C[C@H](F)C6)nc4c3F)c12` (stereo partly drawn) [Example 383, 5-(2-((7-(8-ethyl-7-fluoro-3-hydroxynaphthalen-1-yl)-8-fluoro-2-(((2R,7aS)-2-fluorohexahydro-1H-pyrrolizin-7a-yl)methoxy)pyrido[4,3-d]pyrimidin-4-yl)amino)ethyl) imidazolidine-2,4-dione], the IC50 on KRas G12D is 13 nM; on KRas G12V, 3 nM; on KRas G12R, 8 nM; in the assay on pERK in ASPC1 cells, at least 10000 nM; with pERK in HCT116 cells, at least 10000 nM.
